Results: patent US8012963B2, “3,4-dihydro-2H-benzo[1,4]oxazine and thiazine derivatives as CETP inhibitors” (Janssen Pharmaceutica N.V., priority 2006, dated 2011)
Where “and” joins values, the source holds several entries; their conditions need not be identical. Equal entries are not always repeated.

Biological target: T1, CETP (Homo sapiens, UniProt P11597)
T1 construct: from tissue; host or cells: human plasma from normal volunteers
T1 sequence (P11597 18-493): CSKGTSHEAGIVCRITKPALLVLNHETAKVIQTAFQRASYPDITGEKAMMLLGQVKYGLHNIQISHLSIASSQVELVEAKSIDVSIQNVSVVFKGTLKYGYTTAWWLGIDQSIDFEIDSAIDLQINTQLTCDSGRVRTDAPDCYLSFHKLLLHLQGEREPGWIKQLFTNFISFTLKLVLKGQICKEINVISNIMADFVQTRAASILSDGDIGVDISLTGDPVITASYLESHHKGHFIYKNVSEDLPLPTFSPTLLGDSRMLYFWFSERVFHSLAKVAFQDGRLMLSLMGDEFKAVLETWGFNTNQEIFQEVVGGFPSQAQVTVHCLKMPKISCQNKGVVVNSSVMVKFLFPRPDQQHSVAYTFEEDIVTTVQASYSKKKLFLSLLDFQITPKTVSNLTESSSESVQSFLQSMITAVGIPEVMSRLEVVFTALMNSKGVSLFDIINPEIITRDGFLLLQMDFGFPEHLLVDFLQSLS
Test: CETP in vitro assay ([3H]CE-HDL transfer, Amersham kit TRKQ7005; modified protocol in human plasma)
Type: biochemical
Details: multiple values = multiple measurements; for % Inhibition @ 1 μM / inhibition at 1 µM: 1 μM compound
Procedure: The CETP inhibitory activity of the compounds was determined using a commercially available kit from Amersham Biosciences (Catalog #TRKQ7005).
For the measurement of inhibitory activity in human plasma, a modified protocol (Connolly, D. T. et al., Biochemistry, 39 13870-13879, 2000) was used. Briefly, 80 μl of human plasma (obtained from normal volunteers), approximately 25 μg/ml (200) of [^3H]CE-HDL (Amersham Biosciences from kit TRKQ7005) and 1 μl of compound dissolved in DMSO was incubated for at least 4 hrs at 37° C. and non-specific transfer was determined by incubating a corresponding plate at 4° C. (blank). After the incubation period, 100 of a solution of 1% Dextralip 50/0.5M MgCl2, pH 7.4 was added, vortexed and incubated at room temperature for 10 min. The plate was then centrifuged for 30 min at 10° C. at 3000 rpm in a Sorvall RT6000B centrifuge. Fifty microliters of the supernatant was transferred to a Picoplate (Packard) containing 100 μl of Microscint 40 (Perkin Elmer) and mixed for 30 min using a plate mixer. The radioactivity was counted using a TopCount (Perkin Elmer) and the % control was determined in the samples using the following formula: % transfer relative to vehicle controls (% control)=[cpm blank-cpm test]/cpm blank/cpm control]×100. IC50s were calculated from plots of the % control versus compound concentration.
A variety of example compounds have been made and tested, with a range of in vitro results. Below, in Table 2, are representative compounds and the corresponding data; in some cases, where multiple IC50's are shown, multiple measurements were taken. Naturally, different compounds in Formula (I), (Ia), (Ib) and (Ic) may have not activities identical to any one compound below.

Structure (SMILES)	% Inhibition @ 1 μM	IC50	inhibition at 1 µM
OC(CN1c2cccc(-c3cccc(OC(F)(F)F)c3)c2OCC1c1cccc(OC(F)(F)C(F)F)c1)C(F)(F)F (single isomer, unassigned) [Compound 1, 1,1,1-Trifluoro-3-[3-[3-(1,1,2,2-tetrafluoro-ethoxy)-phenyl]-8-(3-trifluoromethoxy-phenyl)-2,3-dihydro-benzo[1,4]oxazin-4-yl]-propan-2-ol]	96%	0.052 µM and 0.038 µM	–
OC(CN1c2cccc(-c3cccc(OC(F)(F)F)c3)c2OCC1c1cccc(OC(F)(F)C(F)F)c1)C(F)(F)F (single isomer, unassigned) [Compound 2, 1,1,1-Trifluoro-3-[3-[3-(1,1,2,2-tetrafluoro-ethoxy)-phenyl]-8-(3-trifluoromethoxy-phenyl)-2,3-dihydro-benzo[1,4]oxazin-4-yl]-propan-2-ol]	73%	0.276 µM and 0.131 µM	–
OC(CN1c2cccc(-c3cc(F)cc(F)c3)c2OCC1c1cccc(OC(F)(F)C(F)F)c1)C(F)(F)F (single isomer, unassigned) [Compound 64, 3-{8-(3,5-Difluoro-phenyl)-3-[3-(1,1,2,2-tetrafluoro-ethoxy)-phenyl]-2,3-dihydro-benzo[1,4]oxazin-4-yl}-1,1,1-trifluoro-propan-2-ol]	121% and 101% and 119%	0.1 µM and 0.117 µM	–
OC(CN1c2cccc(-c3cc(F)cc(F)c3)c2OCC1c1cccc(OC(F)(F)C(F)F)c1)C(F)(F)F (single isomer, unassigned) [Compound 65, 3-{8-(3,5-Difluoro-phenyl)-3-[3-(1,1,2,2-tetrafluoro-ethoxy)-phenyl]-2,3-dihydro-benzo[1,4]oxazin-4-yl}-1,1,1-trifluoro-propan-2-ol]	86% and 76%	0.99 µM	–
OC(CN1c2cccc(-c3cccc(F)c3)c2OCC1c1cccc(OC(F)(F)C(F)F)c1)C(F)(F)F (single isomer, unassigned) [Compound 66, 1,1,1-Trifluoro-3-{8-(3-fluoro-phenyl)-3-[3-(1,1,2,2-tetrafluoro-ethoxy)-phenyl]-2,3-dihydro-benzo[1,4]oxazin-4-yl}-propan-2-ol]	104% and 79% and 107%	–	–
OC(CN1c2cccc(-c3cccc(F)c3)c2OCC1c1cccc(OC(F)(F)C(F)F)c1)C(F)(F)F (single isomer, unassigned) [Compound 67, 1,1,1-Trifluoro-3-{8-(3-fluoro-phenyl)-3-[3-(1,1,2,2-tetrafluoro-ethoxy)-phenyl]-2,3-dihydro-benzo[1,4]oxazin-4-yl}-propan-2-ol]	97% and 83%	0.78 µM	–
OC(CF)CN1c2cccc(-c3cccc(OC(F)(F)F)c3)c2OC[C@@H]1c1cccc(OC(F)(F)C(F)F)c1 (stereo in doubt) [Compound 74, 4H-1,4-Benzoxazine-4-ethanol, 2,3-dihydro-α-fluoromethyl-3-[3-(1,1,2,2-tetrafluoroethoxy)phenyl]-8-[3-(trifluoromethoxy)phenyl]-, (3S,αR)—]	–	0.014 µM	77%
OC(CF)CN1c2cccc(-c3cccc(OC(F)(F)F)c3)c2OC[C@@H]1c1cccc(OC(F)(F)C(F)F)c1 (stereo in doubt) [Compound 75, 4H-1,4-Benzoxazine-4-ethanol, 2,3-dihydro-α-fluoromethyl-3-[3-(1,1,2,2-tetrafluoroethoxy)phenyl]-8-[3-(trifluoromethoxy)phenyl]-, (3S,αS)—]	–	0.147 µM	55%
O[C@H](CN1c2cccc(-c3cccc(OC(F)(F)F)c3)c2OC[C@@H]1c1cccc(OC(F)(F)C(F)F)c1)C(F)(F)F [Compound 4, 4H-1,4-Benzoxazine-4-ethanol, 2,3-dihydro-3-[3-(1,1,2,2-tetrafluoroethoxy)phenyl]-8-[3-(trifluoromethoxy)phenyl]-α-(trifluoromethyl)-, (3S,αR)—]	–	–	26%
O[C@H](CN1c2cccc(-c3cccc(OC(F)(F)F)c3)c2OC[C@H]1c1cccc(OC(F)(F)C(F)F)c1)C(F)(F)F [Compound 5, 4H-1,4-Benzoxazine-4-ethanol, 2,3-dihydro-3-[3-(1,1,2,2-tetrafluoroethoxy)phenyl]-8-[3-(trifluoromethoxy)phenyl]-α-(trifluoromethyl)-, (3R,αR)—]	–	–	23%
O[C@@H](CN1c2cccc(-c3cccc(OC(F)(F)F)c3)c2OC[C@H]1c1cccc(OC(F)(F)C(F)F)c1)C(F)(F)F [Compound 6, 4H-1,4-Benzoxazine-4-ethanol, 2,3-dihydro-3-[3-(1,1,2,2-tetrafluoroethoxy)phenyl]-8-[3-(trifluoromethoxy)phenyl]-α-(trifluoromethyl)-, (3R,αS)—]	–	–	14%
OC(CN1c2cccc(-c3cccc(OC(F)(F)F)c3)c2OCC1c1cccc(OC(F)(F)F)c1)C(F)(F)F (centres unmarked) [Compound 7, 3-[3,8-Bis-(3-trifluoromethoxy-phenyl)-2,3-dihydro-benzo[1,4]oxazin-4-yl]-1,1,1-trifluoro-propan-2-ol]	64% and 66%	0.104 µM and 0.11 µM	–
OC(CN1c2cccc(-c3cccc(OC(F)(F)F)c3)c2OCC1c1cccc(OC(F)(F)F)c1)C(F)(F)F (centres unmarked) [Compound 8, 3-[3,8-Bis-(3-trifluoromethoxy-phenyl)-2,3-dihydro-benzo[1,4]oxazin-4-yl]-1,1,1-trifluoro-propan-2-ol]	21%	–	–
O[C@@H](CN1c2cccc(-c3cccc(OC(F)(F)F)c3)c2OC[C@@H]1c1cccc(OC(F)(F)F)c1)C(F)(F)F [Compound 9, 4H-1,4-Benzoxazine-4-ethanol, 2,3-dihydro-3,8-bis[3-(trifluoromethoxy)phenyl]-α-(trifluoromethyl)-, (3S,αS)—]	72% and 67%	0.071 µM and 0.195 µM	68%
O[C@H](CN1c2cccc(-c3cccc(OC(F)(F)F)c3)c2OC[C@@H]1c1cccc(OC(F)(F)F)c1)C(F)(F)F [Compound 10, 4H-1,4-Benzoxazine-4-ethanol, 2,3-dihydro-3,8-bis[3-(trifluoromethoxy)phenyl]-α-(trifluoromethyl)-, (3S,αR)—]	–	–	23%
OC(CN1c2cccc(-c3cccc(OC(F)(F)F)c3)c2OCC1c1ccc2c(c1)OC(F)(F)O2)C(F)(F)F (centres unmarked) [Compound 13, 3-[3-(2,2-Difluoro-benzo[1,3]dioxol-5-yl)-8-(3-trifluoromethoxy-phenyl)-2,3-dihydro-benzo[1,4]oxazin-4-yl]-1,1,1-trifluoro-propan-2-ol]	–	0.104 µM and 0.437 µM	48%
OC(CN1c2cccc(-c3cccc(OC(F)(F)F)c3)c2OCC1c1cccc(SC(F)(F)F)c1)C(F)(F)F (centres unmarked) [Compound 15]	67% and 69%	0.36 µM	–
OC(CN1c2cccc(-c3cccc(OC(F)(F)F)c3)c2OCC1c1cccc(SC(F)(F)F)c1)C(F)(F)F (centres unmarked) [Compound 16, 1,1,1-Trifluoro-3-[8-(3-trifluoromethoxy-phenyl)-3-(3-trifluoromethylsulfanyl-phenyl)-2,3-dihydro-benzo[1,4]oxazin-4-yl]-propan-2-ol]	20%	–	–
CCOc1cccc(C2COc3c(-c4cccc(OC(F)(F)F)c4)cccc3N2CC(O)C(F)(F)F)c1 (centres unmarked) [Compound 17, 3-[3-(3-Ethoxy-phenyl)-8-(3-trifluoromethoxy-phenyl)-2,3-dihydro-benzo[1,4]oxazin-4-yl]-1,1,1-trifluoro-propan-2-ol]	55% and 56%	0.49 µM	–
CCOc1cccc(C2COc3c(-c4cccc(OC(F)(F)F)c4)cccc3N2CC(O)C(F)(F)F)c1 (centres unmarked) [Compound 18]	8%	–	–
O=C(CN1c2cccc(-c3cccc(OC(F)(F)F)c3)c2OCC1c1ccc2c(c1)OC(F)(F)O2)C(F)(F)F (centres unmarked) [Compound 19, 3-[3-(2,2-Difluoro-benzo[1,3]dioxol-5-yl)-8-(3-trifluoromethoxy-phenyl)-2,3-dihydro-benzo[1,4]oxazin-4-yl]-1,1,1-trifluoro-propan-2-one]	–	–	0%
COC(=O)N1c2cccc(-c3cccc(OC(F)(F)F)c3)c2OCC1c1cccc(OC(F)(F)C(F)F)c1 (centres unmarked) [Compound 20, 3-[3-(1,1,2,2-Tetrafluoro-ethoxy)-phenyl]-8-(3-trifluoromethoxy-phenyl)-2,3-dihydro-benzo[1,4]oxazine-4-carboxylic acid methyl ester]	–	–	16%
